From US20260207623A1, “USE OF ESTETROL IN HEPATICALLY IMPAIRED PATIENTS” (ESTETRA SRL, priority 2022, published 2026)

System: post-menopausal women
Assay: Example 3: menopause-specific Quality of Life (MENQOL) questionnaire
Format: in vivo, human

## C[C@]12CC[C@@H]3c4ccc(O)cc4CC[C@H]3[C@@H]1[C@@H](O)[C@@H](O)[C@@H]2O.O [E4 monoh.]
15 mg
  MENQOL Anxious or Nervous, Estimate vs Placebo: −0.6100
  MENQOL Being Impatient with Others, Estimate vs Placebo: −0.4911
  MENQOL Difficulty sleeping, Estimate vs Placebo: −0.7011
  MENQOL Dissatisfied Personal Life, Estimate vs Placebo: −0.8163
  MENQOL Physical Domain, Aching in muscles, Estimate vs Placebo: −0.1858
  MENQOL Psychosocial Domain Score, Estimate vs Placebo: −0.5211
  Total MENQOL Score, Estimate vs Placebo: −0.7068
20 mg
  MENQOL Anxious or Nervous, Estimate vs Placebo: −0.8197
  MENQOL Being Impatient with Others, Estimate vs Placebo: −0.5656
  MENQOL Difficulty sleeping, Estimate vs Placebo: −0.7258
  MENQOL Dissatisfied Personal Life, Estimate vs Placebo: −1.2719
  MENQOL Physical Domain, Aching in muscles, Estimate vs Placebo: −0.5576
  MENQOL Psychosocial Domain Score, Estimate vs Placebo: −0.6056
  Total MENQOL Score, Estimate vs Placebo: −0.7155
